This is an account of results in patent publication US20250270238A1, “A NEW BIFUNCTIONAL LINCHPIN THAT REACTS SELECTIVELY WITH CYSTEINE RESIDUES TO INVOKE CYCLIZATION WHILE CONCURRENTLY INTRODUCING A DOTAGA MOIETY FOR RADIOMETAL CHELATION” (The Governors of the University of Alberta, priority 2022, published 2025).

A word on the IC50: it is the concentration needed to halve the response being measured.

The test addresses recombinant human SSTR3 (Homo sapiens, UniProt P32745). The test is described as follows: [125I]SST14 radioligand binding competition, filtration-based. From the text: This was accomplished using filtration-based assays against the radiolabeled peptide ^[125I]SST14. The reference compound used was the peptide SST28.
SiFALP was also used to cyclize octreotide in a model reaction (Scheme 6).

Chain of recombinant human SSTR3 (P32745 whole entry): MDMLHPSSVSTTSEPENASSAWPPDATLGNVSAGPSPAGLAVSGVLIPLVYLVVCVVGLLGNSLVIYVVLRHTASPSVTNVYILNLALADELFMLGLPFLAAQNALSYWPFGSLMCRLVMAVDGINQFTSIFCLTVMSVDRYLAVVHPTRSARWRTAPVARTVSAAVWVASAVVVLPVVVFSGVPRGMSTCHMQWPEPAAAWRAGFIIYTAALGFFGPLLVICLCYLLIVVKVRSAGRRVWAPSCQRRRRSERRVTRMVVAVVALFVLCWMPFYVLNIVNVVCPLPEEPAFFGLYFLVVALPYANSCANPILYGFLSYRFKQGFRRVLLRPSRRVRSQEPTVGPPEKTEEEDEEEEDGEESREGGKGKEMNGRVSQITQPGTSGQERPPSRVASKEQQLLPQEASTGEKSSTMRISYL

As to `C[C@@H](O)[C@@H]1NC(=O)[C@H](CCCCN)NC(=O)[C@@H](Cc2c[nH]c3ccccc23)NC(=O)[C@H](Cc2ccccc2)NC(=O)[C@@H](NC(=O)[C@H](N)Cc2ccccc2)CSC2=C(SC[C@@H](C(=O)N[C@H](CO)[C@@H](C)O)NC1=O)C(=O)N(Cc1cn(Cc3ccc([Si](F)(C(C)(C)C)C(C)(C)C)cc3)nn1)C2=O` [Octreo-SiFA], the half-maximal inhibitory concentration (IC50) was 211 nM.
